In publication PMC9841576, “Characterisation of C101248: A novel selective THIK-1 channel inhibitor for the modulation of microglial NLRP3-inflammasome” (Neuropharmacology, 2023) one finds IC50 and maximum inhibition data, which are given here for one molecule.

SMILES strings stand for the structures. pIC50: −log10 of the molar value. Like-named read-outs stand apart in the source and are kept apart here.

For the experiment, the target named is T1, mouse THIK-1 (Mus musculus, UniProt Q8R1P5).
T1 construct: expressed in transfected cells
T1 sequence (Q8R1P5 1-405): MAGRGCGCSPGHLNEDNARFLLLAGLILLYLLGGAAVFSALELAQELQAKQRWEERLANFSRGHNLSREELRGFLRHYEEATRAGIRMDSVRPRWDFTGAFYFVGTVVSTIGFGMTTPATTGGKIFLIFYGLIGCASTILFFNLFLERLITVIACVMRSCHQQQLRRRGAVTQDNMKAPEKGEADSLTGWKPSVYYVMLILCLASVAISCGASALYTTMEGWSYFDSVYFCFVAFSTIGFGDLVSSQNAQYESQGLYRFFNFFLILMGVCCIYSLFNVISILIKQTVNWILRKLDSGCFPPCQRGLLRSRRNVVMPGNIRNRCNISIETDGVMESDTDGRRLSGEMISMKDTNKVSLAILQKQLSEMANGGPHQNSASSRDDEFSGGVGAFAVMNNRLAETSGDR
As to the kind of experiment: FLIPR thallium influx assay, HEK-mTHIK-1 cells. In kind it is cell-based. As to the method:
HEK-293 cells were transfected with human THIK-1, TREK-1, TWIK-2, or mouse THIK-1 cDNA cloned into pcDNA3.1, using either Fugene HD transfection reagent (Promega) or electroporation (MaxCyte STX instrument). Cells stably expressing the relevant genes were selected based on resistance to 500 μg/ml geneticin (Gibco). For human THIK-1 and TWIK-2 expressing cells, monoclonal lines were isolated by limited dilution cloning; mouse THIK-1 and human TREK-1 expressing cells were maintained as polyclonal pools. The HEK-293 pools and monoclones stably expressing the relevant genes were maintained in DMEM (Life Technologies), supplemented with 10% FCIII (HyClone, Fetal clone III) and 500 μg/ml geneticin. A CHO-Kv2.1 cell line was purchased from Millipore (accession NM_004975) and maintained in F12 (Life Technologies), supplemented with 10% FCSIII (Thermo Scientific) and 500 μg/ml geneticin (Life Technologies). For thallium flux assays, banks of frozen cell aliquots were prepared the day prior to assay, cells were thawed into media and seeded into PDL coated 384-well plates (Corning) at 25,000 (human/mouse THIK-1, TREK-1) or 30,000 (TWIK-2) cells/well (25 μl/well). CHO-Kv2.1 cells were seeded into non-PDL coated plates (Corning) at 5000 cells/well. Plated cells were incubated overnight at 37 °C, 5% CO2 in a humidified atmosphere. For Q-Patch assays, cells were cultured for 7 days prior to assay, dissociated, and diluted to 1–2.5 million/ml in EX-CELL ACF serum free media containing HEPES (25 mM; Life Technologies), penicillin/streptomycin (100 U/ml, 100 μg/ml; Life Technologies) and a trypsin inhibitor (0.04 mg/ml).
A fluorescence-based thallium influx assay (Molecular Devices potassium assay kit) was used to monitor channel activity. […] Using a fluorescent imaging plate reader (FLIPR) tetra plate reader, 15 μl thallium stimulus solution was added to the cell plate and the fluorescence signal recorded every second for 1 min (excitation: 470–495 nm, emission: 515–575 nm).

Usually pIC50 stands for the negative decadic logarithm of the IC50, by convention in mol/L. Take `Nc1nonc1-c1nc2ccccc2n1Cc1ccncc1` [C101248]: the pIC50 is, setting by setting: (HEK-mTHIK-1, normalised to TPA controls, read-out: IC50, mouse THIK-1 (thallium influx)) 7.31; (mouse THIK-1, read-out: IC50, inhibition of mouse THIK-1 (abstract)) about 7.30. The maximum inhibition (HEK-mTHIK-1, thallium influx) amounted to 100%.
